“Also recorded” adds a separate entry of the source.

The subject of one experiment is female Lewis rats. As to the kind of experiment: Test for meibomian gland peripheral telangiectasia by administration of complete Freund's adjuvant using rats. The following applies: for Telangiectasia score (mean): six eyes. It is filed as in vivo, rat. How it is done: 1. Test for Meibomian Gland Peripheral Telangiectasia by Administration of Full Friend's Adjuvant Using Rats Clarithromycin (LKT Laboratories, Inc.), concentrated glycerin, dibasic sodium phosphate hydrate and polyoxyl 40 stearate were added to purified water and dissolved to prepare a test sample comprising clarithromycin at a final concentration of 1% (w/v), at pH 7. Twenty five μl of complete Freund's adjuvant was administered to one site of the right upper eyelid of female Lewis rats at five weeks age. On the seventh day from the initiation, the periphery of the meibomian gland orifices on the right upper eyelid was observed using a slit-lamp and a telangiectasia score was determined. The eyelid margin of the upper eyelid was divided into three segments: ear, middle and nasal sites, and based on criteria described in Table 1, scores of telangiectasia peripheral to the meibomian gland orifices in each segment were determined and the sum of the scores in three segments were calculated as the telangiectasia score of one eye. The presence or absence of dilation of the capillaries was determined based on whether a capillary that is usually not visible could be ascertained as a result of enlargement of the capillary diameter. [table] After dividing into a saline-administered group and a 1% (w/v) clarithromycin aqueous solution-administered groups, the test was carried out with six eyes in each group so as to minimize variations in mean scores, and from the 8th day after initiation, saline (5 μl/eye, six times per day) or 1% (w/v) clarithromycin aqueous solution (5 μl/eye, three or six times per day) were instilled into the right eyes for 21 days. At 28 days after initiation, the peripheries of the meibomian gland orifices on the right upper eyelids were observed using a slit-lamp and the telangiectasia score was determined.

The subject of experiment [1] is Male Hos:HR-1 hairless mice. As to the kind of experiment: Test for obstruction of meibomian gland orifices by feeding HR-AD diet using hairless mice. It is filed as in vivo, mouse. Conditions: for Number of obstructed meibomian gland orifices (mean, out of eight): six eyes. The protocol:
2. Test for Obstruction of Meibomian Gland Orifices by Feeding HR-AD Diet Using Hairless Mice A 1% (w/v) clarithromycin test solution was prepared by the same operation as described in Pharmacological Test 1. Male Hos:HR-1 hairless mice at five weeks of age were divided into a group of 6 fed a regular diet (CRF-1 diet, manufactured by Oriental Yeast Co., Ltd.); and a group of 12 fed an HR-AD diet (manufactured by Nosan Corporation), and the mice in each respective group were freely allowed to feed the regular diet or HR-AD diet. On the 28th day after the start of the diets, meibomian gland orifices were observed using a slit-lamp and the number of obstructed orifices out of eight meibomian gland orifices of the center of the right upper eyelid were counted. The presence or absence of an obstruction of the meibomian gland orifice was determined based on whether the meibomian gland orifice was in a cloudy and swollen state. The 12 mice in the HR-AD diet group were further divided into a saline-administered group; and a 1% (w/v) clarithromycin aqueous solution-administered group, and testing was carried out with six eyes in each group so as to minimize variations in the mean scores of the number of obstructed meibomian gland orifices in each group; from the 29th day after starting the diets, saline (2 μl/eye, three times per day) or 1% (w/v) clarithromycin aqueous solution (2 μl/eye, three times per day) were instilled for 14 days. At 42 days after starting the diet, meibomian gland orifices were observed using a slit-lamp and the number of obstructed orifices out of eight meibomian gland orifices of the center of the right upper eyelid were counted.

Setting [2] is: 42 days after starting HR-AD diet (14 days from starting administration), 1% (w/v) aqueous solution.

For the compound `CC[C@H]1OC(=O)[C@H](C)[C@@H](O[C@H]2C[C@@](C)(OC)[C@@H](O)[C@H](C)O2)[C@H](C)[C@@H](O[C@@H]2O[C@H](C)C[C@H](N(C)C)[C@H]2O)[C@](C)(OC)C[C@@H](C)C(=O)[C@H](C)[C@@H](O)[C@]1(C)O` [clarithromycin, Clarithromycin], the “Telangiectasia score (mean)” value with female Lewis rats (7 days after initiation (day 0 from start of administration, baseline), 1% (w/v) aqueous solution group, instilled 3 times per day) turned out to be 5.3; in the experiment with female Lewis rats (7 days after initiation (day 0 from start of administration, baseline), 1% (w/v) aqueous solution group, instilled 6 times per day), 5.3; in the experiment with female Lewis rats (28 days after initiation (day 21 from start of administration), 1% (w/v) aqueous solution, 5 μl/eye, instilled 3 times per day), 2.8; with female Lewis rats (28 days after initiation (day 21 from start of administration), 1% (w/v) aqueous solution, 5 μl/eye, instilled 6 times per day), 2.5. Besides, the “Telangiectasia score in the vicinity of the meibomian gland orifices compared to the saline-administered group” value with female Lewis rats (28 days after initiation (day 21 from start of administration), 1% aqueous solution instilled three or six times per day) is “notably improved the telangiectasia score; also recorded: remarkably lower”. Also, the “Number of obstructed meibomian gland orifices (mean, out of eight)” value was determined as 5.5 in experiment [1] (28 days after starting feeding HR-AD diet (day 0 from start of administration, baseline), 1% (w/v) aqueous solution group) and 1.8 in experiment [1] (42 days after starting feeding HR-AD diet (day 14 from start of administration), 1% (w/v) aqueous solution, 2 μl/eye, three times per day). Besides, the Meibomian gland concretion entry in experiment [1] (setting [2]) is “improved”. In addition, the “Number of obstructed meibomian gland orifices, change in words” value in experiment [1] (setting [2]) is “notably reduced the number of obstructions; also recorded: remarkably decreased”.
